Experimental data as given in US11077163B2, “Peptide for treating ocular diseases and composition for treating ocular diseases comprising same” (GemVax & KAEL CO., LTD., priority 2015, dated 2021).

Assays:
Assay type in all cases: in vivo, Brown Norway rats
[1] = system: laser-induced choroidal neovascularization (CNV); assay: CNV area by isolectin staining of retinal pigment epithelium-choroid-sclera tissues in laser-induced CNV animal model; details: subcutaneous once a day, isolectin-stained area at 2 weeks after laser
Description: Brown Norway rats were anesthetized, and pupils of the eyes were dilated using 0.5% phenylephrine (pupillary dilatation). The target rats having the dilated pupils of the eyes were irradiated with a 577 nm laser (577 nm, diode, 10 μm, 0.05 seconds) 6 to 8 times per eye to cause neovascularization in the choroid. Upon laser irradiation, the eyes were covered with a cover glass, and the rupture of Bruch's membranes was confirmed from the fact that bubbles occurred during irradiation with lasers using a slit lamp delivery system. […] An area of tissues stained with isolectin specific to vascular endothelial cells was measured to determine CNV areas in the control and the groups in which pep1 was administered. The groups in which pep1 was administered and the control complied with the experimental groups disclosed in Example 2, and the thicknesses of all lesions in each of the groups were measured to check whether there was a difference in CNV areas between the groups.

[2] = system: laser-induced choroidal neovascularization (CNV); assay: Angiographic leakage in the choroid by fluorescein angiography (FAG) in laser-induced CNV animal model; details: subcutaneous once a day, FAG at 2 weeks after laser
Description: Brown Norway rats were anesthetized, and pupils of the eyes were dilated using 0.5% phenylephrine (pupillary dilatation). The target rats having the dilated pupils of the eyes were irradiated with a 577 nm laser (577 nm, diode, 10 μm, 0.05 seconds) 6 to 8 times per eye to cause neovascularization in the choroid. Upon laser irradiation, the eyes were covered with a cover glass, and the rupture of Bruch's membranes was confirmed from the fact that bubbles occurred during irradiation with lasers using a slit lamp delivery system. In a laser-induced CNV […] model, the rats were randomized to experimental groups in which the peptide pep1 prepared by the method disclosed in Example 1 was administered at three doses of 0.1, 1, and 10 nM, and the control (vehicle) in which pep1 was not administered, and a drug was subcutaneously administered to the rats once a day for a period of time starting from the day before 3 days of laser irradiation to 2 weeks after the laser irradiation. To compare the CNV activities between various groups, a Kruskal-Wallis test was used. In this case, the comparison between two groups was performed using a Mann-Whitney U test. A p value was considered to be statistically significant when the p value was less than 0.05. After CNV was induced with lasers, the rats in the groups in which pep1 was administered and the rats in the control were anesthetized after the elapse of 2 weeks, and a contrast medium was intraperitoneally injected at a dose of 0.1 mL (10% fluorescein disodium salt). Levels of angiographic leakage in the choroid between the control and the groups in which pep1 was administered were compared using fluorescein angiography (FAG). The groups in which pep1 was administered and the control complied with the experimental groups disclosed in Example 2, and the leakage levels at all lesions in each of the groups were measured to check whether there was a difference in angiographic leakage in the choroid between the groups. […]

[3] = system: laser-induced choroidal neovascularization (CNV); assay: CNV thickness by optical coherence tomography (OCT) in laser-induced CNV animal model; details: subcutaneous once a day
Description: Brown Norway rats were anesthetized, and pupils of the eyes were dilated using 0.5% phenylephrine (pupillary dilatation). The target rats having the dilated pupils of the eyes were irradiated with a 577 nm laser (577 nm, diode, 10 μm, 0.05 seconds) 6 to 8 times per eye to cause neovascularization in the choroid. Upon laser irradiation, the eyes were covered with a cover glass, and the rupture of Bruch's membranes was confirmed from the fact that bubbles occurred during irradiation with lasers using a slit lamp delivery system. In a laser-induced CNV […] model, the rats were randomized to experimental groups in which the peptide pep1 prepared by the method disclosed in Example 1 was administered at three doses of 0.1, 1, and 10 nM, and the control (vehicle) in which pep1 was not administered, and a drug was subcutaneously administered to the rats once a day for a period of time starting from the day before 3 days of laser irradiation to 2 weeks after the laser irradiation. To compare the CNV activities between various groups, a Kruskal-Wallis test was used. […] The groups in which pep1 was administered and the control complied with the experimental groups disclosed in Example 2, and the thicknesses of all lesions in each of the groups were measured to check whether there was a difference in CNV thicknesses between the groups.

With “EARPALLTSRLRFIPK (listed as Homo sapiens) [pep1, telomerase-derived peptide of 16 amino acids, location [611-626] on human telomerase]” the “CNV area compared to the control” value ([1]; all groups 0.1, 1 and 10 nM) was “statistically significantly reduced”, the “CNV area compared to the control” value ([1]; group at 1 nM) was “most drastically reduced” and the “angiographic leakage level compared to the control” value ([2]; all groups 0.1, 1 and 10 nM) was “reduced”. The “ratio of lesions with Grade 2B (clinically severe leakage level) compared to the control” value ([2]; all groups 0.1, 1 and 10 nM) was “reduced”, the “ratio of lesions with Grade 2B (clinically severe leakage level) compared to the control” value ([2]; groups at 1 and 10 nM) was “drastically reduced” and the “CNV thickness compared to the control” value ([3]; all groups 0.1, 1 and 10 nM, from 3 days before to 2 weeks after laser irradiation, OCT at 2 weeks) was “statistically significantly reduced”. The “CNV thickness compared to the control” value ([3]; group at 1 nM, OCT at 2 weeks after laser) was “most drastically reduced”.
